The text below walks through data of patent publication US7204974B2, “Stabilization of oxidation-sensitive or UV-sensitive active ingredients” (Beiersdorf AG, priority 2001, dated 2007).

One data set can be described thus: Polarity of lipids. It is filed as physicochemical. Conditions: further lipids, polarity of ≧30 mN/m.
With `CCCCCCCCCCCCCCCCCC(C)C` [Isoeicosane], the “Polarity mN/m” value was found to be 41.9 mN/m.
As to `CC(CCOC(=O)CC(C)CC(C)(C)C)CC(C)(C)C` (stereo not drawn) [Trimethylhexyl Isononanoate], the “Polarity mN/m” value was determined as 31.1 mN/m.
The same measure, in the same setting: in the case of `CCCCCCCC/C=C\CCCCCCCC(=O)OCCOCCOCC` [Ethoxydiglycol Oleate] it was 40.5 mN/m; in that of `CCCCCCCCOC(=O)CCCCCCCCCCCCCCC(C)C` [Octyl Isostearate], 31.6 mN/m; in that of `CCCCC(CC)COC(=O)CCCCCC(C)C` (stereo not drawn) [2-Ethylhexyl Isononanoate], 31.0 mN/m.
With `CCCCCCCCCCCCCC(C)C` [Isohexadecane], the “Polarity mN/m” value was determined as 43.8 mN/m.
Take Dioctylcyclohexane: the “Polarity mN/m” value was 39.0 mN/m.
The same measure, in the same setting: in the case of Isocetyl Palmitate it was 36.2 mN/m.

The same data set, now with this note: lipids with a polarity of at most 30 mN/m.
Cyclomethicone [DC Fluid 345]: the “Polarity mN/m” value amounted to 28.5 mN/m.
For the compound Triisostearin [Prisorine 2041 GTIS], the “Polarity mN/m” value was determined as 2.4 mN/m.
Still for that read-out and setting: next, `CCCCCCCCCCC(CO)CCCCCCCC` (stereo not drawn) [Eutanol G, Octyldodecanol]: 24.8 mN/m.
Still for that read-out and setting: next, “Phenyl Trimethicone [Silicone oil VP 1120]”: 22.7 mN/m; PEG 2 Diethylene Hexanoate [Dermol 488]: 10.1 mN/m; `CCCCOC(=O)CCCCC(=O)OCCCC` [Cetiol B, Dibutyl Adipate]: 14.3 mN/m.
Still for that read-out and setting: in the case of `CCCCCCCCCCCCCCCCCCOC(=O)CCCCCC` [Tegosoft SH, Stearyl Heptanoate] it was 17.8 mN/m; in that of `CC(C)CCCCCCCOC(=O)CC(C)CC(C)(C)C` (stereo not drawn) [Dermol 109, Isodecyl 3,5,5-Trimethyl Hexanoate], 29.1 mN/m.
As for `CCCCCCCC(=O)OCC(COC(=O)CCCCCCC)OC(=O)CCCCCCC` [Trivent OCG, Tricaprylin], the “Polarity mN/m” value worked out at 20.2 mN/m.
`CCCCCCCCCC(=O)OCCCC(C)C` [Dermol IHD, Isohexyl Decanoate]: the “Polarity mN/m” value was determined as 29.7 mN/m.
The same measure, in the same setting: in the case of `CCCCCCOCCCCCC` [Dihexyl ether, Dihexyl Ether] it was 29.2 mN/m; in that of `CCCCCCCC(=O)OCCCCCCCC(C)C` [Dermol 108, Isodecyl Octanoate], 29.6 mN/m; in that of `CCCCCCCCCCCCCCCCCC(=O)OC(C)C` [Isopropyl stearate, Isopropyl Stearate], 21.9 mN/m.
Same read-out and setting: in the case of “Cyclopolydimethylsiloxane [Dow Corning Fluid 244]” it was 28.5 mN/m; in that of `CC(C)CCCCCCCOC(=O)C(C)(C)C` [DUB VCI 10, Isodecyl Neopentanoate], 29.9 mN/m.
Same read-out and setting: next, `CCCCCCCCC(CO)CCCCCC` (stereo not drawn) [Isofol 16, Hexyl Decanol]: 24.3 mN/m.
For `CCCCCCC(CCCC)C(=O)O` (stereo not drawn) [Isocarb 12, Butyl Octanoic Acid], the “Polarity mN/m” value turned out to be 22.1 mN/m.
Same read-out and setting: next, “Isotridecyl 3,5,5-trimethylhexanonanoate [Dermol 139]”: 24.5 mN/m.
As for Cetearyl Isononanoate [Cetiol SN], the “Polarity mN/m” value came to 28.6 mN/m.
With `CCCCCCCCCCCCCC(=O)OCC(CCCCCCCC)CCCCCCCCCC` (stereo not drawn) [M.O.D., Octyldodecyl Myristate], the “Polarity mN/m” value is listed as 22.1 mN/m.
Still for that read-out and setting: in the case of `CCCCC(CC)C(=O)OCCC(C)CC(C)(C)C` (stereo not drawn) [Dermol 98, 2-Ethylhexanoic acid 3,5,5-trimethyl ester] it was 26.2 mN/m; in that of `CCCCCCC(CO)CCCC` (stereo not drawn) [Isofol 12, Butyl Octanol], 17.4 mN/m.
